Source: US7851474B2, “Dipiperazinyl ketones and related analogues” (Neurogen Corporation, priority 2005, dated 2010)

Each compound was assayed against T1, chimeric human H3 receptor (Homo sapiens, UniProt Q9Y5N1, E19D) (assay: Chimeric human H3 receptor GTP binding assay (agonist-stimulated GTP-gamma35S binding, Example 7)). Details: not given.
T1 construct: made in house; host or cells: Sf9 insect cells (baculovirus infection); P2 membrane preparation
Format: biochemical
Text: This Example illustrates a representative assay for evaluating agonist-stimulated GTP-gamma^35S binding (“GTP binding”) activity. […] This agonist-stimulated GTP binding activity can also be used to detect partial agonism mediated by antagonist compounds. A compound analyzed in this assay is referred to herein as a “test compound.”
Four independent baculoviral stocks (one directing the expression of the chimeric human H3 receptor and three directing the expression of each of the three subunits of a heterotrimeric G-protein) are used to infect a culture of Sf9 cells as described above. P2 membranes are prepared as described above, and agonist-stimulated GTP binding on the P2 membranes is assessed using histamine (Sigma Chemical Co., St. Louis, Mo.) as agonist in order to ascertain that the receptor/G-protein-alpha-beta-gamma combination(s) yield a functional response as measured by GTP binding. P2 membranes are resuspended by Dounce homogenization (tight pestle) in GTP binding assay buffer (50 mM Tris pH 7.4, 120 mM NaCl, 5 mM MgCl2, 2 mM EGTA, 1 mg/ml BSA, 0.2 mg/ml bacitracin, 0.02 mg/ml aprotinin, 0.01 mg/ml saponin, 10 μM GDP) and added to assay tubes at a concentration of 35 μg protein/reaction tube. […] In competition experiments, non-radiolabeled test compounds are added to separate reactions at concentrations ranging from 10^−10 M to 10^−6 M along with 1 μM histamine to yield a final volume of 0.20 ml.
Neutral antagonists are antagonists that are substantially free of inherent agonist activity, and include those test compounds that reduce the histamine-stimulated GTP binding activity towards, but not below, baseline levels. In contrast, in the absence of added histamine, inverse agonists reduce the GTP binding activity of the receptor-containing membranes below baseline.
After a 60-min incubation at room temperature, reactions are terminated by vacuum filtration over WHATMAN GF/C filters (pre-soaked in wash buffer, 0.1% BSA) followed by washing with ice-cold wash buffer (50 mM Tris pH 7.4, 120 mM NaCl). The amount of receptor-bound (and thereby membrane-bound) GTP-gamma^35S is determined by measuring the filter-bound radioactivity, preferably by liquid scintillation spectrometry of the washed filters. […] Data is expressed as percent above basal (baseline). The results of GTP binding experiments are analyzed using SIGMAPLOT software (SPSS Inc., Chicago, Ill.).
IC50 values are calculated by non-linear regression analysis of dose-response curves using Kaleidograph (Synergy Software, Reading, Pa.).

T1 sequence (Q9Y5N1 with tags, fused parts or gaps E19D): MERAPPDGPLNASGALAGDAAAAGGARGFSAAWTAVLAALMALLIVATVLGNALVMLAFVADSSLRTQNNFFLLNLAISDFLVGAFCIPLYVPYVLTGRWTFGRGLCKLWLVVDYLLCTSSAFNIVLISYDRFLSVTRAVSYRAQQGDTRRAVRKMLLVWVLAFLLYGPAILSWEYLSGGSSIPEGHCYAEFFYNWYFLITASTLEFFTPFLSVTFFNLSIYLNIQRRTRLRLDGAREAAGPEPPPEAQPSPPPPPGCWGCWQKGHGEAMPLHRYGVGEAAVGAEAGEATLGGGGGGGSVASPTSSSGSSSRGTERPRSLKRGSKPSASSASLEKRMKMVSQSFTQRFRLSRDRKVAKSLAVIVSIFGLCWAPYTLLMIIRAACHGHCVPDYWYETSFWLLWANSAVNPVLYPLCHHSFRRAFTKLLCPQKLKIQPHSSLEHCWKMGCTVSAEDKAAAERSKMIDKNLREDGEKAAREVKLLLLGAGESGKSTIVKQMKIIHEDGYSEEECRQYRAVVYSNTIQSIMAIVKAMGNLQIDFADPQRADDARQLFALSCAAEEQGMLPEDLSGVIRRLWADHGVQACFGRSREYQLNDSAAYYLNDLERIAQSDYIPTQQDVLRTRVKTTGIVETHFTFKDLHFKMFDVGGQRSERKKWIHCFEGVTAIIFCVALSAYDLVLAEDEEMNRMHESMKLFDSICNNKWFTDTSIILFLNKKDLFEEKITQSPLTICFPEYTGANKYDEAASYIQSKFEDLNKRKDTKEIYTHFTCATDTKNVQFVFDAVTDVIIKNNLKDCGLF

**Q.** `O=C(CN1CCN(c2ccc3c(c2)OCO3)CC1)N1CCN(C2CCCC2)CC1` [Compound 257, 1-(1,3-benzodioxol-5-yl)-4-[2-(4-cyclopentylpiperazin-1-yl)-2-oxoethyl]piperazine] was tested. Which Ki did it give?
**A.** < 1000 nM

**Q.** `CC(C)N1CCN(C(=O)CN2CCN(c3ccc4c(c3)OCO4)CC2)CC1` [Compound 258, 1-(1,3-benzodioxol-5-yl)-4-[2-(4-isopropylpiperazin-1-yl)-2-oxoethyl]piperazine] was tested. Which Ki did it give?
**A.** < 1000 nM

**Q.** For `CC(C)N1CCN(C(=O)CN2CCN(c3cccc(Cl)c3Cl)CC2)CC1` [Compound 262, 1-(2,3-dichlorophenyl)-4-[2-(4-isopropylpiperazin-1-yl)-2-oxoethyl]piperazine], which Ki is on record?
**A.** < 1000 nM

**Q.** `CC(C)N1CCN(C(=O)CN2CCN(c3cccc(F)c3)CC2)CC1` [Compound 303, 1-(3-fluorophenyl)-4-[2-(4-isopropylpiperazin-1-yl)-2-oxoethyl]piperazine] was tested. Which Ki did it give?
**A.** < 1000 nM

Same assay, conditions: assay of Example 7; "*" in Ki of Table II; read-out: Ki

**Q.** How did the Ki turn out when `CC(=O)c1ccc(N2C[C@@H](C)N(CC(=O)N3CCN(C4CCC4)CC3)C[C@@H]2C)cc1` (relative stereo) [Compound 1269, rel-1-(4-{(2R,5S)-4-[2-(4-cyclobutylpiperazin-1-yl)-2-oxoethyl]-2,5-dimethylpiperazin-1-yl}phenyl)ethanone] was run?
**A.** < 1000 nM

Same assay, conditions: assay of Example 7; symbol * in column headed Ki of Table II; read-out: Ki

**Q.** For `O=C(CN1CCN(c2ccc(F)cc2F)CC1)N1C[C@H]2C[C@@H]1CN2C1CCC1` [Compound 247, (1R,4R)-2-cyclobutyl-5-{[4-(2,4-difluorophenyl)piperazin-1-yl]acetyl}-2,5-diaza bicyclo[2.2.1]heptane], which Ki is on record?
**A.** < 1000 nM

**Q.** How did the Ki turn out when `O=C(c1ccccc1)c1ccc(N2CCN(CC(=O)N3CCN(C4CCC4)CC3)CC2)cc1` [Compound 248, (4-{4-[2-(4-cyclobutylpiperazin-1-yl)-2-oxoethyl]piperazin-1-yl}phenyl)(phenyl)methanone] was run?
**A.** < 1000 nM

**Q.** With `O=C(c1ccc(N2CCN(CC(=O)N3CCN(C4CCC4)CC3)CC2)cc1)C1CC1` [Compound 249, (4-{4-[2-(4-cyclobutylpiperazin-1-yl)-2-oxoethyl]piperazin-1-yl}phenyl)(cyclopropyl) methanone] as the compound, how does the Ki read?
**A.** < 1000 nM

**Q.** For `O=C(c1ccncc1)c1ccc(N2CCN(CC(=O)N3CCN(C4CCC4)CC3)CC2)cc1` [Compound 250, (4-{4-[2-(4-cyclobutylpiperazin-1-yl)-2-oxoethyl]piperazin-1-yl}phenyl)(pyridin-4-yl)methanone], which Ki is on record?
**A.** < 1000 nM

**Q.** How did the Ki turn out when `O=C(c1ccccc1)c1ccc(N2CCN(CC(=O)N3CCN(C4CCCC4)CC3)CC2)cc1` [Compound 251, (4-{4-[2-(4-cyclopentylpiperazin-1-yl)-2-oxoethyl]piperazin-1-yl}phenyl)(phenyl)methanone] was run?
**A.** < 1000 nM

**Q.** Which Ki does the source give for `O=C(CN1CCN(c2cccc(C(=O)N3CC[C@H]4CCCC[C@@H]4C3)c2)CC1)N1CCN(C2CCC2)CC1` [Compound 252, (4aR,8aS)-2-(3-{4-[2-(4-cyclobutylpiperazin-1-yl)-2-oxoethyl]piperazin-1-yl}benzoyl) decahydroisoquinoline] here?
**A.** < 1000 nM

**Q.** For `O=C(CN1CCN(c2ccc(C(=O)N3CC[C@H]4CCCC[C@@H]4C3)cc2)CC1)N1CCN(C2CCC2)CC1` [Compound 253, (4aR,8aS)-2-(4-{4-[2-(4-cyclobutylpiperazin-1-yl)-2-oxoethyl]piperazin-1-yl}benzoyl) decahydroisoquinoline], which Ki is on record?
**A.** < 1000 nM

**Q.** With `O=C(CN1CCN(c2cccc(C(=O)N3CC[C@@H]4CCCC[C@@H]4C3)c2)CC1)N1CCN(C2CCC2)CC1` [Compound 254, (4aS,8aS)-2-(3-{4-[2-(4-cyclobutylpiperazin-1-yl)-2-oxoethyl]piperazin-1-yl}benzoyl) decahydroisoquinoline] as the compound, how does the Ki read?
**A.** < 1000 nM

**Q.** For `O=C(CN1CCN(c2ccc(C(=O)N3CC[C@@H]4CCCC[C@@H]4C3)cc2)CC1)N1CCN(C2CCC2)CC1` [Compound 255, (4aS,8aS)-2-(4-{4-[2-(4-cyclobutylpiperazin-1-yl)-2-oxoethyl]piperazin-1-yl}benzoyl) decahydroisoquinoline], which Ki is on record?
**A.** < 1000 nM

**Q.** Which Ki does the source give for `CC(C)N1CCN(C(=O)CN2CCN(c3ccc(F)cc3F)CC2)CC1` [Compound 264, 1-(2,4-difluorophenyl)-4-[2-(4-isopropylpiperazin-1-yl)-2-oxoethyl]piperazine] here?
**A.** < 1000 nM

**Q.** With `Cc1cccc(C)c1N1CCN(CC(=O)N2CCN(C(C)C)CC2)CC1` [Compound 268, 1-(2,6-dimethylphenyl)-4-[2-(4-isopropylpiperazin-1-yl)-2-oxoethyl]piperazine] as the compound, how does the Ki read?
**A.** < 1000 nM

**Q.** For `CC(=O)c1cnc(N2CCN(CC(=O)N3CCN(C4CCC4)CC3)CC2)nc1` [Compound 269, 1-(2-{4-[2-(4-cyclobutylpiperazin-1-yl)-2-oxoethyl]piperazin-1-yl}pyrimidin-5-yl)ethanone], which Ki is on record?
**A.** < 1000 nM

**Q.** How did the Ki turn out when `Cc1ccc(F)c(-c2ccc(N3CCN(CC(=O)N4CCN(C5CCC5)CC4)CC3)cc2)c1Cl` [Compound 273, 1-(2′-chloro-6′-fluoro-3′-methylbiphenyl-4-yl)-4-[2-(4-cyclobutylpiperazin-1-yl)-2-oxoethyl]piperazine] was run?
**A.** < 1000 nM

**Q.** Which Ki does the source give for `O=C(CN1CCN(c2ccc(-c3ccccc3Cl)cc2)CC1)N1CCN(C2CCC2)CC1` [Compound 278, 1-(2′-chlorobiphenyl-4-yl)-4-[2-(4-cyclobutylpiperazin-1-yl)-2-oxoethyl]piperazine] here?
**A.** < 1000 nM

**Q.** For `CC(C)N1CCN(C(=O)CN2CCN(c3ccc(Cl)c(Cl)c3)CC2)CC1` [Compound 283, 1-(3,4-dichlorophenyl)-4-[2-(4-isopropylpiperazin-1-yl)-2-oxoethyl]piperazine], which Ki is on record?
**A.** < 1000 nM

**Q.** `CCN1CCN(C(=O)CN2CCN(c3ccc(OC)c(OC)c3)CC2)CC1` [Compound 284, 1-(3,4-dimethoxyphenyl)-4-[2-(4-ethylpiperazin-1-yl)-2-oxoethyl]piperazine] was tested. Which Ki did it give?
**A.** < 1000 nM

**Q.** `COc1ccc(N2CCN(CC(=O)N3CCN(C(C)C)CC3)CC2)cc1OC` [Compound 285, 1-(3,4-dimethoxyphenyl)-4-[2-(4-isopropylpiperazin-1-yl)-2-oxoethyl]piperazine] was tested. Which Ki did it give?
**A.** < 1000 nM

**Q.** `CC(=O)c1ccc(-c2cccc(N3CCN(CC(=O)N4CCN(C5CCC5)CC4)CC3)c2)cc1` [Compound 288, 1-(3′-{4-[2-(4-cyclobutylpiperazin-1-yl)-2-oxoethyl]piperazin-1-yl}biphenyl-4-yl)ethanone] was tested. Which Ki did it give?
**A.** < 1000 nM

**Q.** Which Ki does the source give for `O=C(CN1CCN(c2cccc(C(=O)N3CCCCCC3)c2)CC1)N1CCN(C2CCC2)CC1` [Compound 289, 1-(3-{4-[2-(4-cyclobutylpiperazin-1-yl)-2-oxoethyl]piperazin-1-yl}benzoyl)azepane] here?
**A.** < 1000 nM

**Q.** Which Ki does the source give for `O=C(CN1CCN(c2cccc(Br)c2)CC1)N1CCN(C2CCC2)CC1` [Compound 293, 1-(3-bromophenyl)-4-[2-(4-cyclobutylpiperazin-1-yl)-2-oxoethyl]piperazine] here?
**A.** < 1000 nM

**Q.** Which Ki does the source give for `CC(=O)c1ccc(N2CCN(CC(=O)N3CCN(C4CCC4)CC3)CC2)c(Cl)c1` [Compound 295, 1-(3-chloro-4-{4-[2-(4-cyclobutylpiperazin-1-yl)-2-oxoethyl]piperazin-1-yl}phenyl)ethanone] here?
**A.** < 1000 nM

**Q.** Which Ki does the source give for `O=C(CN1CCN(c2ccc(-c3ccc(F)c(Cl)c3)cc2)CC1)N1CCN(C2CCC2)CC1` [Compound 297, 1-(3′-chloro-4′-fluorobiphenyl-4-yl)-4-[2-(4-cyclobutylpiperazin-1-yl)-2-oxoethyl]piperazine] here?
**A.** < 1000 nM

**Q.** Which Ki does the source give for `O=C(CN1CCN(c2ccc(-c3cccc(Cl)c3)cc2)CC1)N1CCN(C2CCC2)CC1` [Compound 300, 1-(3′-chlorobiphenyl-4-yl)-4-[2-(4-cyclobutylpiperazin-1-yl)-2-oxoethyl]piperazine] here?
**A.** < 1000 nM

**Q.** `O=C(CN1CCN(c2cccc(Cl)c2)CC1)N1CCN(C2CCC2)CC1` [Compound 301, 1-(3-chlorophenyl)-4-[2-(4-cyclobutylpiperazin-1-yl)-2-oxoethyl]piperazine] was tested. Which Ki did it give?
**A.** < 1000 nM

**Q.** For `CC(C)N1CCN(C(=O)CN2CCN(c3cccc(Cl)c3)CC2)CC1` [Compound 302, 1-(3-chlorophenyl)-4-[2-(4-isopropylpiperazin-1-yl)-2-oxoethyl]piperazine], which Ki is on record?
**A.** < 1000 nM

**Q.** How did the Ki turn out when `CC(=O)c1ccc(N2CCN(CC(=O)N3CCN(C4CCC4)CC3C)CC2)cc1` (centres unmarked) [Compound 304, 1-(4-{4-[2-(4-cyclobutyl-2-methylpiperazin-1-yl)-2-oxoethyl]piperazin-1-yl}phenyl)ethanone] was run?
**A.** < 1000 nM

**Q.** For `CC(=O)c1ccc(N2CCN(CC(=O)N3CCN(C4CCC4)CC3)[C@H](C)C2)cc1` [Compound 306, 1-(4-{4-[2-(4-cyclobutylpiperazin-1-yl)-2-oxoethyl]-3-methylpiperazin-1-yl}phenyl)ethanone], which Ki is on record?
**A.** < 1000 nM
